Laboratory results taken from US9963443B2, “Radiolabeled compounds” (TAKEDA PHARMACEUTICAL COMPANY LIMITED, priority 2014, dated 2018).

Key:
human CH24H = human CH24H (Homo sapiens (Human), UniProt Q9Y6A2); assay: Measurement of CH24H inhibitory activity (24-HC produced from [14C]cholesterol by human CH24H lysate); type: biochemical; conditions: [14C]cholesterol 15 μM, 37° C. for 5 hr
Method: The expression of human CH24H was performed using FreeStyle 293 Expression System (Invitrogen). […] After transfection, the cells were cultured at 37° C., 8% CO2 with shaking at 125 rpm for 2 days. The cells were collected by centrifugation, and suspended in a suspension buffer (100 mM potassium phosphate (pH 7.4), 0.1 mM EDTA, 1 mM DTT, 20% Glycerol). The suspended product was disrupted by a polytron homogenizer (manufactured by Kinematica), and centrifuged at 9000×g for 10 min, and the supernatant was collected. The collected supernatant was cryopreserved (−80° C.) as a human CH24H lysate standard product.
For the measurement of CH24H inhibitory activity, using the human CH24H lysate prepared in Experimental Example 2, the amount of 24-HC produced from cholesterol by catalytic activity of CH24H was measured in the presence of a test compound, and compared with that measured in the absence of the test compound. That is, a test compound solution at various concentrations was mixed with a reaction buffer (50 mM potassium phosphate containing 0.1% BSA and Complete, EDTA-free, pH 7.4) and human CH24H lysate. Then, [^14C] cholesterol (53 mCi/mmol specific activity, 15 μM) was added, and CH24H reaction was performed at 37° C. for 5 hr. After completion of the reaction, a quenching solution consisting of chloroform/methanol/distilled water (2:2:1 v/v) was added, and the resulting 24-HC was extracted by shaking. The extract was applied to silica gel thin layer chromatography (ethyl acetate:toluene=4:6), and the obtained ^14C-24HC fraction was measured with BAS2500 (Fujifilm Corporation).
The inhibitory rate (%) and IC50 values (μM) were calculated from the ratio of radioactivity in the presence of a test compound relative to the radioactivity in the absence of the test compound.

[1] = system: other CNS related human receptors and enzymes; assay: Selectivity assay over other CNS related human receptors and enzymes (Eurofins Panlabs, Tables 3-1 and 3-2); type: binding; conditions: at 10 μM
Method: The CH24H IC50 is a measure of the ability of the test compound to inhibit the action of the CH24H enzyme. To determine the selectivity of the test compounds for CH24H, inhibitory activities of the compound were determined for other CNS (central nerve system) related receptors and enzymes such as Adenosine A2B, Adrenergic β1, Adrenergic β2, Adrenergic β3, Angiotensin AT2, Bradykinin B1, Cannabinoid CB1, Carbonic Anhydrase II, Acetyl Cholinesterase, Cyclooxygenase (COX-1), Cyclooxygenase (COX-2), Dopamine D1, Dopamine D2L, Dopamine D3, Dopamine D4.2, GABA B1A, GABA B1B, Histamine H1, Histamine H2, Imidazoline I2 (Central), MAO A, MAO B, Muscarinic M1, Muscarinic M2, Muscarinic M3, Opiate κ (OP2, KOP), Opiate μ (OP3; MOP), Metalloproteinase, Phosphodiesterase 4 (PDE4), Phosphodiesterase 5 (PDE5), 5-HT2B, NK2, NK3, Dopamine transporter, Norepinephrine transporter, Serotonin transporter (SERT), Vasopressin V1A. […] Such a result is indicative of the selectivity of the compounds in use as radiotracers for quantitative imaging of CH24H. In general, one of ordinary skill in the art would appreciate that a substance is considered to be effectively used for quantitative imaging of CH24H if it has an activity in inhibiting other CNS related receptors and enzymes with less than 50% at 10 μM. […]

CH24H = CH24H (Macaca mulatta, UniProt I2CYF7); assay: PET measurements and image analysis after intravenous bolus of radiotracer; type: in vivo, rhesus macaque (macaca mulatta); conditions: for BPND in the putamen: Logan graphical analysis, cerebellum as reference region, t* 40 min
CH24H, sequence (I2CYF7 1-500): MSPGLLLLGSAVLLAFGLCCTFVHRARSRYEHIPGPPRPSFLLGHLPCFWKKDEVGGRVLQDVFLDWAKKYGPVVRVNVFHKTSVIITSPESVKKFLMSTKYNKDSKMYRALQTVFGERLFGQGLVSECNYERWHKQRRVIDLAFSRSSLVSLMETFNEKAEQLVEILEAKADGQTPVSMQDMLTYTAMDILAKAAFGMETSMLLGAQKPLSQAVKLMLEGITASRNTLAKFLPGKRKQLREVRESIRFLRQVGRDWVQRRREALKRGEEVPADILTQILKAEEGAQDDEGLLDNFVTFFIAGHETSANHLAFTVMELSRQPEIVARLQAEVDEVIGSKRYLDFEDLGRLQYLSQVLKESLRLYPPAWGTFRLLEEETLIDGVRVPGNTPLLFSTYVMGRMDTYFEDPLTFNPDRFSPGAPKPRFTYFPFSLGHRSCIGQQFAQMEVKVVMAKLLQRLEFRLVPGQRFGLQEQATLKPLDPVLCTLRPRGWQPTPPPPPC
Method: Animals were fasted for 18-24 h before the study. At 2 h prior to injection of the radiopharmaceutical, the animals were anesthetized with intramuscular ketamine (10 mg/kg) and glycopyrrolate (0.01 mg/kg), transferred to the PET camera, and immediately intubated with an endrotracheal tube for continued anesthesia with 2.75% isoflurane administered through a rebreathing circuit. Body temperature was kept at 37° C. using a heated water blanket. Vital signs, including heart rate, blood pressure, respiration rate, oxygen saturation and body temperature, were monitored every 3 to 20 min during the study.
The dynamic series were subsequently reconstructed using filtered back projection with corrections for random, scatter, and attenuation provided by the camera manufacturer.
Four samples of 5 mL were drawn at 3, 10, 30 and 60 min post injection to evaluate the stability in blood as well as the metabolite analysis method and HPLC conditions.
Reconstructed PET image data volumes were transferred to the image processing PMOD software package (PMOD Technologies, Zurich, Switzerland) where the images were realigned with the monkey's individual MRI to apply a volume of interest (VOI) template comprising the following regions: whole brain, caudate nucleus, putamen, globus pallidus, frontal cortex, temporal cortex, occipital cortex, parietal cortex, anterior cingulate cortex, posterior cingulated cortex, hippocampus, thalamus, and cerebellum. Average activity concentration (kBq/cc) within each VOI was determined and time activity curves (TAC) were generated for each study, depicting the regional brain activity concentration over time and reflecting total uptake (specific plus non displaceable). Time activity curves were also expressed in SUV (Standard Uptake Value) units (g/mL) by normalizing by the weight of the animal and the injected dose. Logan graphical analysis with reference region input function was applied to the regional time activity curves with t* fixed at 40 min to obtain an estimate of BPND (Binding Potential relative to the Non-Displaceable compartment), where the cerebellum was used as the reference region.

human CH24H, sequence (Q9Y6A2 whole entry): as the sequence (I2CYF7 1-500) above, with I87V, S417G, T494A counted along it

Row | Compound | IC50 (human CH24H) | other results
1 | CN(C(=O)C1CCN(c2cnccc2-n2cc(Cl)cn2)CC1)[C@@H]1CCOC1 [Reference Example 14, 1-(4-(4-chloro-1H-pyrazol-1-yl)pyridin-3-yl)-N-methyl-N-((3R)-tetrahydrofuran-3-yl)piperidine-4-carboxamide] | 0.017 µM | 
2 | O=C(C1CCN(c2cncnc2-c2ccc(F)cc2)CC1)N1CC(F)C1 [Reference Example 2, (3-fluoroazetidin-1-yl) (1-(4-(4-fluorophenyl)pyrimidin-5-yl)piperidin-4-yl)methanone] | 0.0088 µM | inhibition in the assays listed in Tables 3-1 and 3-2 [1]: less than 50%
3 | O=C(C1CCN(c2cncnc2-c2ccc(F)cc2)CC1)N1CC[C@H](F)C1 [Reference Example 10, (1-(4-(4-fluorophenyl)pyrimidin-5-yl)piperidin-4-yl) ((3S)-3-fluoropyrrolidin-1-yl)methanone] | 0.02 µM | 
4 | Cc1cnn(-c2ccncc2N2CCN(C(=O)N(CCF)Cc3ccc(F)cc3)CC2)c1 [Reference Example 23, N-(4-fluorobenzyl)-N-(2-fluoroethyl)-4-(4-(4-methyl-1H-pyrazol-1-yl)pyridin-3-yl)piperazine-1-carboxamide] | 0.017 µM | 
5 | Cc1cnc(-c2ccncc2N2CCC(C(=O)N3CC(F)C3)CC2)s1 [Reference Example 21, (3-fluoroazetidin-1-yl) (1-(4-(5-methyl-1,3-thiazol-2-yl)pyridin-3-yl)piperidin-4-yl)methanone] | 0.0049 µM | 
6 | Cc1cnn(-c2ccncc2N2CCC(C(=O)N3CC(F)C3)CC2)c1 [Reference Example 4, (3-fluoroazetidin-1-yl) (1-(4-(4-methyl-1H-pyrazol-1-yl)pyridin-3-yl)piperidin-4-yl)methanone] | 0.0071 µM | 
7 | O=C(C1CCN(c2cnccc2-n2cc(Br)cn2)CC1)N1CC(F)C1 [Reference Example 20, (1-(4-(4-bromo-1H-pyrazol-1-yl)pyridin-3-yl)piperidin-4-yl) (3-fluoroazetidin-1-yl)methanone] | 0.0069 µM | 
8 | (1-(4-(4-chloro-1H-pyrazol-1-yl)pyridin-3-yl)piperidin-4-yl) (3-[^18F]fluoroazetidin-1-yl)methanone [Example 1] |  | BPND in the putamen (CH24H): 2.3; brain kinetics (CH24H; female rhesus macaque, PET time activity curves): favorable kinetics with a significant washout following the maximum uptake; regional brain uptake (distribution) (CH24H; female rhesus macaque, PET time activity curves (FIG. 1, FIG. 2)): highest uptake in the putamen and caudate; whole-brain maximum % ID (CH24H; female rhesus macaque, i.v. bolus, PET): 1.6%
9 | O=C(C1CCN(c2cnccc2-n2cc(Cl)cn2)CC1)N1CC(F)C1 [Reference Example 5, (1-(4-(4-chloro-1H-pyrazol-1-yl)pyridin-3-yl)piperidin-4-yl) (3-fluoroazetidin-1-yl)methanone] | 0.019 µM | 
10 | CN(C(=O)C1CCN(c2cnccc2-n2cc(Cl)cn2)CC1)C1CCOCC1 [Reference Example 3, 1-(4-(4-chloro-1H-pyrazol-1-yl)pyridin-3-yl)-N-methyl-N-(tetrahydro-2H-pyran-4-yl)piperidine-4-carboxamide] | 0.0074 µM | 
11 | O=C(C1CCN(c2cncnc2-c2ccc(F)cc2)CC1)N1CC([18F])C1 [Example 2, (3-[^18F]fluoroazetidin-1-yl) (1-(4-(4-fluorophenyl)pyrimidin-5-yl)piperidin-4-yl)methanone] |  | BPND in the putamen (CH24H): 2.6; brain kinetics (CH24H; rhesus monkey, in vivo): favorable kinetics with a significant washout following the maximum uptake; regional brain uptake (distribution) (CH24H; rhesus monkey, in vivo): highest uptake in the putamen and caudate; time of maximum SUV in the putamen (CH24H; rhesus monkey, in vivo, iv): ~30 min post injection; whole-brain maximum % ID (CH24H; rhesus monkey, in vivo, iv): 2.3%
12 | O=C(C1CCN(c2cncnc2-c2ccc(F)cc2)CC1)N1CC[C@@H](F)C1 [Reference Example 11, (1-(4-(4-fluorophenyl)pyrimidin-5-yl)piperidin-4-yl) ((3R)-3-fluoropyrrolidin-1-yl)methanone] | 0.016 µM | 
13 | O=C(C1CCN(c2cnccc2-n2cc(C3CC3)cn2)CC1)N1CC(F)C1 [Reference Example 26, (1-(4-(4-cyclopropyl-1H-pyrazol-1-yl)pyridin-3-yl)piperidin-4-yl) (3-fluoroazetidin-1-yl)methanone] | 0.01 µM | 
14 | CN(C(=O)C1CCN(c2cnccc2-n2cc(Cl)cn2)CC1)[C@H]1CCOC1 [Reference Example 13, 1-(4-(4-chloro-1H-pyrazol-1-yl)pyridin-3-yl)-N-methyl-N-((3S)-tetrahydrofuran-3-yl)piperidine-4-carboxamide] | 0.02 µM | 
15 | CN(C(=O)C1CCN(c2cncnc2-c2ccc(F)cc2)CC1)C1CC1 [Reference Example 1, N-cyclopropyl-1-(4-(4-fluorophenyl)pyrimidin-5-yl)-N-methylpiperidine-4-carboxamide] | 0.0054 µM | 
